One assay has as its system TNF-α production. The assay is described as follows: inhibition of LPS-induced TNF-α production in human peripheral blood (ELISA). In kind it is cell-based. The conditions noted are these: human peripheral blood, 24 hours; for inhibitory activity for TNF-α production over concentration range: 1, 3, 10, 30, 100 μM. As for the experimental part: The LPS solution which was adjusted to 2 μg/mL with RPMI 1640 medium was added to 48-well plate in the amount of 250 μL/well. The each diluted solution of each test compound and the diluted solution of the solvent control were added to 3 wells for each concentration in the amount of 50 μL/well, 4-fold diluted solution of human peripheral blood was added to each well (200 μL/well), and the wells were incubated at 37° C. in 5% CO2 for 24 hours. As LPS (−) control, RPMI 1640 medium without added LPS was prepared in the same manner. The final concentrations of each test sample were adjusted to 0, 1, 3, 10, 30, and 100 μM, and the final concentration of prednisolone was adjusted to 0.3 μM. 24 hours later from the incubation, each supernatant was collected and stored at −80° C. until the measurement of the TNF-α concentration.
The TNF-α concentration was measured by ELISA with Human TNF-alpha Quantikine ELISA Kit (R & D Systems). Each sample was unfrozen at room temperature, and diluted with Calibrator Diluent RD6-35 (1×) of the kit by 10-fold. The 10-fold diluted supernatant and the TNF-α standard solution were added on TNF-α microplate, and reacted according to the operating manual of the kit. After the coloring, the absorbance at wave length of 450 nm was measured with a microplate reader (Multiskan FC; Thermo Fisher […]), and the calibration curve was prepared with an analysis software (Skanit Software 3.1.0.4 RE for Multiskan FC (ja)) to read the TNF-α concentration of each sample. Calibration curve used a 4-parameter logistic curve.
The inhibition rates were presented as the mean±standard deviation using Microsoft Excel 2010. For each blood donor, the TNF-α production rate under each compound concentration was calculated with the TNF-α concentration in the supernatant of the solvent group as 100%.
The results are averages of the measurements obtained from the human peripheral blood of three volunteers.
(An ELISA detects its analyte on a solid surface through an enzyme-linked reagent.)

Assay [1] has as its system Mycobacterium avium subspecies paratuberculosis (MAP). In words: antibacterial activity (MIC), broth microdilution method. The class given is cell-based. The conditions noted are these: 336 h. As for the experimental part:
The chronic enterocolitis of ruminants which is caused by Mycobacterium avium subspecies paratuberculosis (MAP) is similar to Crohn's disease. […] Thus, the antibacterial activity of the present compound against MAP was evaluated. The used comparative drugs for the present compound were rifaximin (RFX), ciprofloxacin (CPFX), metronidazole (MTZ), clarithromycin (CAM), rifabutin (RBT), and clofazimine (CFZ).
The antibacterial activity (minimum inhibitory concentration (MIC)) was assayed by broth microdilution method which is based on Clinical and laboratory standards institute (CLSI).
The 5 strains of MAP were inoculated onto Middlebrook 7H9 agar containing 10% dubos oleic albumin complex (OADC), Tween 80 (0.5 g/L), mycobactin J (2 mg/L), and 1.5% agar, and pre-cultured at 37° C. under an aerobic condition for 14 days. After the pre-culture, the bacterial cell was scraped out from the agar, and prepared to the turbidity of 0.5 Mcfarland standard using Middlebrook 7H9 broth containing 10% dubos oleic albumin complex (OADC), Tween 80 (0.5 g/L), and mycobactin J (2 mg/L)]. The 10-fold diluted solution of the bacterial suspension was inoculated onto Middlebrook 7H9 broth 96-well plate which contains the present compound or any one of the comparative drugs, and incubated at 37° C. under an aerobic condition for 14 days.
After the incubation, the bacterial growth in each well of the 96-well plate was visually checked. The minimum concentration at which the bacterial growth was not observed, compared with the result of the well containing neither present compound nor comparative drug was determined as MIC of the present compound or each comparative drug against each test bacterium.

In a further assay the test system is Fusobacterium spp. In words: antibacterial activity (MIC), agar plate dilution method. In kind it is cell-based. The following applies: 17 strains of Fusobacterium spp.; anaerobic, 37° C. The method, then:
There are plural reports about the relationship between intestinal bacteria and inflammatory bowel disease, and it is thought that Fusobacterium spp., one of the intestinal bacteria is a pathogenic bacteria causing inflammatory bowel disease. […] The antibacterial activity (minimum inhibitory concentration (MIC)) was assayed by agar plate dilution method which is based on Clinical and laboratory standards institute (CLSI). The medium used herein was Brucella medium with sheep blood. […] The bacterial suspension was inoculated onto Brucella agar with sheep blood which contains the present compound or any one of the comparative drugs, and incubated at 37° C. under an anaerobic condition.

Assay [2] concerns naive T cell transfer model of colitis. In words: naive T cell transfer model of colitis (Crohn's disease mouse model), histological scoring of large intestine. The class given is in vivo. The following applies: from 2nd week after transplantation for 2 weeks; present compound, CPFX, RFX oral once a day 10 mg/kg; antibody 25 mg/kg i.p. twice a week; 4th week. From the text: From spleen of Balb/c mouse, naive T cell (CD4+CD62L+CD44−) was isolated with antibody-coated magnetic beads. The isolated naive T cell (5×10^5 cells/mouse) was transplanted in abdominal cavity of SCID mouse which is a severe combined immunodeficiency animal. The present compound was orally administered to the mouse once a day at each dose defined in Table 1 below, from the first day of the transplantation for Test 1, or from the 2nd week after the transplantation for Test 2, until 5 weeks after the transplantation. [table] […] The anti-TNF-α antibody was intraperitoneally administered to the mouse twice a week at each dose defined in Table 2 below, from the 2nd week after the transplantation, for 2 weeks. [table] At 5th week for Tests 1 and 2, and at 4th week for Test 3, the large intestine was removed, and the length and weight of the large intestine were measured. In addition, the large intestine was fixed with formalin to carry out pathological analysis. From the removed large intestine, the anus part, the center part, and the cecal part were cut out each in about 0.5 cm, and each part was fixed with formalin. The paraffin block thereof was prepared, sliced, and subjected to H&E staining. The H&E stained slice was examined with a microscope to score it histologically. The histological scoring was carried out by scoring the inflammatory cell infiltrate, the Goblet cell loss, and the hyperplasia of mucosal epithelium, based on the standard (0-4) defined in Table 3 below. [table]

A further assay concerns TNBS-induced enteritis. In words: TNBS-induced enteritis model. The conditions noted are these: 100 mg/kg orally twice a day; 12 rats per group. In kind it is in vivo, rat. The method, then: An enteritis animal model induced with 2,4,6-trinitrobenzenesulfonic acid (TNBS) is widely used as Crohn's disease model since the inflammatory finding is pathologically similar to that of human Crohn's disease. In addition, the enteritis model was used in the non-clinical study of mesalazine that is a medicament for treating Crohn's disease. Thus, this enteritis model was used as Crohn's disease model for evaluating the present compound.
Rats were made to be fasted for 24 or 48 hours, and the body weight were measured. The rats were laparotomized under isoflurane anesthesia, and 50% ethanol (0.25 mL) containing 60 mg/mL 2,4,6-trinitrobenzenesulfonic acid (TNBS) was injected into the large intestine from the cecum side toward the anal side to induce the injury. Each group composed of 12 rats was set, and vehicle, the present compound, or salazosulfapyridine (SASP) which is an already-existing drug for treating inflammatory bowel disease were administered for 7 days from the first day after the injection of TNBS. On the 8th day, each rat was laparotomized under anesthesia and killed by exsanguination. The large intestine was removed from the anus to the cecum, the large intestine was longitudinally incised, and the incised large intestine was washed with a cold saline. The lesion area of the large intestine was photographed with a digital camera. The area of the lesion area in the photograph of the large intestine was measured using image analyzing program.
Each compound was orally administered at a dose of 100 mg/kg twice a day from one day after inducing enteritis with TNBS. Each area of the lesion area on the 8th day was compared.

A further assay has as its system DSS-induced colitis. The assay is described as follows: DSS-induced colitis model, stool scores. In kind it is in vivo, rat. From the text:
A colitis model induced by dextran sulfate sodium (DSS) is widely used as an experimental ulcerative colitis model having similarities of human ulcerative colitis regarding suppression of weight gain, colitis symptoms such as bloody stools and diarrhea, and injury formation in the large intestine. The effect of the present compound on the ulcerative colitis model was examined, and it was compared with salazosulfapyridine (SASP) clinically used as a therapeutic agent for ulcerative colitis.
Symptoms of colitis were induced by allowing rats to freely drink 3% dextran sulfate sodium (DSS) solution for 10 days. […] For the observation of stool symptoms, the degree of stool condition was scored as the score of stool firmness (Stool Consistency Score: 0, 1, 2, 3) and blood stool (Bloody Stool Score: 0, 1, 2, 3). The total of Stool Consistency Score and Bloody Stool Score was taken as the Total Stool Score. Each group was composed of 8 animals. Salazosulfapyridine (SASP), which is an already-existing drug for treating inflammatory bowel disease, the present compound or the vehicle were administrated for 10 days from the start date of 3% DSS freely drinking.

Where [3] appears, read: 11th day, present compound 1, 3, 10 mg/kg (P<0.01) or SASP 100 mg/kg (P<0.05) orally twice a day, Dunnett's test.

In brackets after ≈: the same amount, converted by molar mass. Some results are limits rather than exact numbers.

Take `Nc1ccc(O)c(C(=O)O)c1` [5-ASA, 5-aminosalicylic acid]: in the assay with TNF-α production, the “inhibitory activity for TNF-α production over concentration range” value was “no inhibitory activity”.

As a reminder, the MIC is the smallest concentration in the dilution series that meets the test's criterion for growth inhibition. A low value points to inhibition by little substance. The compound `CC[C@H]1OC(=O)[C@H](C)[C@@H](O[C@H]2C[C@@](C)(OC)[C@@H](O)[C@H](C)O2)[C@H](C)[C@@H](O[C@@H]2O[C@H](C)C[C@H](N(C)C)[C@H]2O)[C@](C)(OC)C[C@@H](C)C(=O)[C@H](C)[C@@H](O)[C@]1(C)O` [CAM, clarithromycin] displayed a minimal inhibitory concentration (MIC) in assay [1] of 0.12 to 0.25 µg/mL (≈ 0.16 to 0.334 µM).

In assay [1], `CC(C)/N=c1\cc2n(-c3ccc(Cl)cc3)c3ccccc3nc-2cc1Nc1ccc(Cl)cc1` [CFZ, clofazimine] yielded an MIC of 0.12 to 0.5 µg/mL (≈ 0.253 to 1.06 µM).

With `O=C(O)c1cn(C2CC2)c2cc(N3CCNCC3)c(F)cc2c1=O` [CPFX, ciprofloxacin], the MIC with Fusobacterium spp. was in the range of 2 to 8 µg/mL (≈ 6.04 to 24.1 µM); in assay [1], 0.25 to 0.5 µg/mL (≈ 0.754 to 1.51 µM). The “histological score (Test 3, comparative study)” value in assay [2] is reported as “little or no inhibitory effect”. For the same compound, the inhibition at 100 µM in the assay on TNF-α production (100 μM, read-out: inhibitory effect on TNF-α production at 100 μM) was less than 50%. Besides, in the assay with TNF-α production, the “inhibitory activity for TNF-α production over concentration range” value was “dose-dependent inhibitory effect at a concentration of 30 μM or more”.

Consider `Cc1ncc([N+](=O)[O-])n1CCO` [MTZ, metronidazole], for which the MIC against Fusobacterium spp. was 0.03 to 0.5 µg/mL (≈ 0.175 to 2.92 µM); in assay [1] it was greater than 128 µg/mL.

Compound `CO[C@H]1/C=C/O[C@@]2(C)Oc3c(C)c(O)c4c(c3C2=O)C2=NC3(CCN(CC(C)C)CC3)NC2=C(NC(=O)/C(C)=C\C=C\[C@H](C)[C@H](O)[C@@H](C)[C@@H](O)[C@@H](C)[C@H](OC(C)=O)[C@@H]1C)C4=O` [RBT, rifabutin] yielded a minimum inhibitory concentration (MIC) in assay [1] of 0.25 to 1 µg/mL (≈ 0.295 to 1.18 µM).

In the case of `CO[C@H]1/C=C/O[C@@]2(C)Oc3c(C)c(O)c4c(O)c(c5c(nc6cc(C)ccn65)c4c3C2=O)NC(=O)/C(C)=C\C=C\[C@H](C)[C@H](O)[C@@H](C)[C@@H](O)[C@@H](C)[C@H](OC(C)=O)[C@@H]1C` [RFX, rifaximin], the “histological score (Test 3, comparative study)” value in assay [2] is “little or no inhibitory effect”. Besides, the “inhibitory activity for TNF-α production over concentration range” value with TNF-α production is “no inhibitory activity”. The same compound displayed an MIC in assay [1] of 1 to 2 µg/mL (≈ 1.27 to 2.54 µM).

For `O=C(O)c1cc(/N=N/c2ccc(S(=O)(=O)Nc3ccccn3)cc2)ccc1O` [SASP, salazosulfapyridine, reference compound], the “number of death during the treatment” value in the assay with TNBS-induced enteritis is given as “two”. In addition, the “day from which suppression of stool score deterioration was observed” value in the assay on DSS-induced colitis (100 mg/kg orally twice a day) is “from the 9th day”. This compound also yielded a deaths with DSS-induced colitis (100 mg/kg orally twice a day, 8 animals per group) of 2. Besides, the “bloody stool score vs vehicle control” value in the assay with DSS-induced colitis (11th day, present compound 1 mg/kg (P<0.05), 3, 10 mg/kg (P<0.01) or SASP 100 mg/kg orally twice a day, Dunnett's test) is “not significant”. Further, in the assay with DSS-induced colitis (setting [3]), the “stool firmness (Stool Consistency Score) vs vehicle control” value was “significant differences” and the “total stool score vs vehicle control” value was “significant differences”.

For the origin of these results see patent publication US20210317111A1, “NOVEL MEDICAMENT FOR TREATING INFLAMMATORY BOWEL DISEASE” (OTSUKA PHARMACEUTICAL CO., LTD., priority 2018, published 2021).
